Laboratory results taken from the kinase profiling compilation of Christmann-Franck et al. (2016).

Columns and labels:
Test in all cases: KINOMEscan competition binding
Conditions in all cases: compound 10.0 µM
[1] = target: MAP3K1 (human) (UniProt Q13233)
[2] = target: FGFR1 (human) (UniProt P11362)
[3] = target: BMPR1A (human) (UniProt P36894)
[4] = target: ACVR1B (human) (UniProt P36896)
[5] = target: CDK5 (human) (UniProt Q00535)
[6] = target: PAK4 (human) (UniProt O96013)
[7] = target: FLT3 (human) (UniProt P36888)
[8] = target: ERBB3 (human) (UniProt P21860)
[9] = target: ACVR2A (human) (UniProt P27037)
[10] = target: EIF2AK1 (human) (UniProt Q9BQI3)
EIF2AK1 (human), sequence (Q9BQI3 whole entry, looked up): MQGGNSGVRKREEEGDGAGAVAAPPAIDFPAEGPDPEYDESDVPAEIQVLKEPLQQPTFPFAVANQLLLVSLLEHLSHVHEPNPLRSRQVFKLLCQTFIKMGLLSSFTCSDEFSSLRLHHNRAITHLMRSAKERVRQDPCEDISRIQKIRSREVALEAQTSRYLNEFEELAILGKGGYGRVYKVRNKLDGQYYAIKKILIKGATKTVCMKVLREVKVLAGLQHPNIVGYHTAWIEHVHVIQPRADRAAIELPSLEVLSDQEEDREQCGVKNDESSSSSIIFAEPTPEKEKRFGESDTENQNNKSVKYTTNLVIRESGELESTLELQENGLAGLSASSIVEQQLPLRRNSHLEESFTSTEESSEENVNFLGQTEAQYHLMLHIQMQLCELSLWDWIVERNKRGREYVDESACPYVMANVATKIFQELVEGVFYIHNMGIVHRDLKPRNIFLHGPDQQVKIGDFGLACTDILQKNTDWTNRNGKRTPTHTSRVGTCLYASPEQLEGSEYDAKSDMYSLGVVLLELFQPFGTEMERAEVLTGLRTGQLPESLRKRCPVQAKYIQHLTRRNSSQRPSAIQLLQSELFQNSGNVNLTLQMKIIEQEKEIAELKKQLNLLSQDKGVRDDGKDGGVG

[11] = target: RIPK4 (human) (UniProt P57078)
[12] = target: PAK3 (human) (UniProt O75914)
PAK3 (human), sequence (O75914 whole entry, looked up): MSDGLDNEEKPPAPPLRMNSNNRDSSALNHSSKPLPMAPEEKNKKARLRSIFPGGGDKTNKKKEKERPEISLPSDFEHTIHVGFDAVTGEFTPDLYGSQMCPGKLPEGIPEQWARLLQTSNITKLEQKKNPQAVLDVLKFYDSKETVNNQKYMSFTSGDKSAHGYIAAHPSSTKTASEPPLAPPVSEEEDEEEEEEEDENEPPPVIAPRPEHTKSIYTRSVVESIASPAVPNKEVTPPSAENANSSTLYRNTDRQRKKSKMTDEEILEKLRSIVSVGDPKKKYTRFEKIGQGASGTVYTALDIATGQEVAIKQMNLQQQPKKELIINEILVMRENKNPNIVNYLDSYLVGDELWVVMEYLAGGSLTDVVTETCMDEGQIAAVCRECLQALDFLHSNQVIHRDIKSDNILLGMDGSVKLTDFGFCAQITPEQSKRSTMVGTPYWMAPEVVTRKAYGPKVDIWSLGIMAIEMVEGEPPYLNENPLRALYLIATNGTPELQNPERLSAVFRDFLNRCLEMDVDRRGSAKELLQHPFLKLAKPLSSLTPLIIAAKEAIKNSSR

[13] = target: PRKD3 (human) (UniProt O94806)
PRKD3 (human), sequence (O94806 whole entry, looked up): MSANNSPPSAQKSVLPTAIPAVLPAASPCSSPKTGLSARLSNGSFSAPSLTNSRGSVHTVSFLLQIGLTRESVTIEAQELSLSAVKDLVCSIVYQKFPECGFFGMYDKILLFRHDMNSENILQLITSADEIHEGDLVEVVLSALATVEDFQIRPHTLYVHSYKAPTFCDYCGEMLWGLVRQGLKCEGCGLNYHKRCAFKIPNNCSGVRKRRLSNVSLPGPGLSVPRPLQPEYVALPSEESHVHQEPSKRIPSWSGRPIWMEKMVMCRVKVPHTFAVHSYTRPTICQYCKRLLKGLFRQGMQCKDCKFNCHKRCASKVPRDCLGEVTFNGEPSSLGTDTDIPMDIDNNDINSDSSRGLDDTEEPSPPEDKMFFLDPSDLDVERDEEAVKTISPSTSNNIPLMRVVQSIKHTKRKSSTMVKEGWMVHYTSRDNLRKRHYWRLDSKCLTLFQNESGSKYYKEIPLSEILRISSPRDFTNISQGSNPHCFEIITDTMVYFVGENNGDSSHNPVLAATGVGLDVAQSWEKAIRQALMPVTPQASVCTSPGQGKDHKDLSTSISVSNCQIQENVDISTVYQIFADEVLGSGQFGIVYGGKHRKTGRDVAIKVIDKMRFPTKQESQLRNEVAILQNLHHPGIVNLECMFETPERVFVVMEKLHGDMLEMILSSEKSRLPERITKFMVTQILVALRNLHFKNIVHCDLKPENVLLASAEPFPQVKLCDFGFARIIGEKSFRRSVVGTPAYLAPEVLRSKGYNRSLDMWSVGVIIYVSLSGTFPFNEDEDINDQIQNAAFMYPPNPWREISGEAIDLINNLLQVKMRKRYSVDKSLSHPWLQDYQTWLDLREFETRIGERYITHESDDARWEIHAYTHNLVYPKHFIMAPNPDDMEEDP

[14] = target: PIM1 (human) (UniProt P11309)
PIM1 (human), sequence (P11309 whole entry, looked up): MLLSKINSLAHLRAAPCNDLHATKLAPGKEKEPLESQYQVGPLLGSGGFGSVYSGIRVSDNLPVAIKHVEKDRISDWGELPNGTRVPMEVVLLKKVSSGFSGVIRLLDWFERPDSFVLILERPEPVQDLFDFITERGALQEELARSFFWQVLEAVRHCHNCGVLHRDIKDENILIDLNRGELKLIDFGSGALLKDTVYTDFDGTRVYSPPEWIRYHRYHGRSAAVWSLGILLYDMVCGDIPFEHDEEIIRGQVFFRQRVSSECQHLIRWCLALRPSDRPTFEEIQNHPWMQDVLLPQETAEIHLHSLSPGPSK

[15] = target: MAP3K5 (human) (UniProt Q99683)
[16] = target: ALK (human) (UniProt Q9UM73)
[17] = target: PRKCE (human) (UniProt Q02156)
[18] = target: HIPK3 (human) (UniProt Q9H422)
[19] = target: PLK3 (human) (UniProt Q9H4B4)
[20] = target: AURKB (human) (UniProt Q96GD4)
[21] = target: SGK3 (human) (UniProt Q96BR1)
[22] = target: GAK (human) (UniProt O14976)
[23] = target: INSR (human) (UniProt P06213)
[24] = target: CHUK (human) (UniProt O15111)
[25] = target: PLK4 (human) (UniProt O00444)
[26] = target: TNIK (human) (UniProt Q9UKE5)
[27] = target: RPS6KA2 KD1 (human) (UniProt Q15349)
[28] = target: SIK1 (human) (UniProt P57059)
SIK1 (human), sequence (P57059 whole entry, looked up): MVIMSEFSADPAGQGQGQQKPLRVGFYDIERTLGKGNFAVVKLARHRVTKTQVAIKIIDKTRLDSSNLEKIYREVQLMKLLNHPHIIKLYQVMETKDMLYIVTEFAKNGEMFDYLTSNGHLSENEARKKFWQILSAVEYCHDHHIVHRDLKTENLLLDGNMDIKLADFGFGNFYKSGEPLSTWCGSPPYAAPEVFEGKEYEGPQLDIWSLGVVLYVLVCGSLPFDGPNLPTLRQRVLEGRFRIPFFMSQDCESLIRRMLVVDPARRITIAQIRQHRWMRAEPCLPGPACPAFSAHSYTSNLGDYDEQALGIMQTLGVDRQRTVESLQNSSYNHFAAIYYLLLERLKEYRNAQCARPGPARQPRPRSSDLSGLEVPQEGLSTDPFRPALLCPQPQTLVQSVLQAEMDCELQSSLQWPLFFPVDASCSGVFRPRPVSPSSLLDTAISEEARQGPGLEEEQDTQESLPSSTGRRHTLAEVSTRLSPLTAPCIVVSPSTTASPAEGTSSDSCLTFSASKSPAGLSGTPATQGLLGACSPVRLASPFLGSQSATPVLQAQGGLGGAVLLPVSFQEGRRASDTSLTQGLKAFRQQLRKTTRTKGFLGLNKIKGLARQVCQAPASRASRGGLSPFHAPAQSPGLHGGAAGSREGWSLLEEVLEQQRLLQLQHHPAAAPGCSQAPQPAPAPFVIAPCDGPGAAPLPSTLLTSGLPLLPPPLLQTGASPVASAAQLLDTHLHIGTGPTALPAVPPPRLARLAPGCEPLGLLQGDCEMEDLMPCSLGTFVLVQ

[29] = target: DMPK (human) (UniProt Q09013)
DMPK (human), sequence (Q09013 whole entry, looked up): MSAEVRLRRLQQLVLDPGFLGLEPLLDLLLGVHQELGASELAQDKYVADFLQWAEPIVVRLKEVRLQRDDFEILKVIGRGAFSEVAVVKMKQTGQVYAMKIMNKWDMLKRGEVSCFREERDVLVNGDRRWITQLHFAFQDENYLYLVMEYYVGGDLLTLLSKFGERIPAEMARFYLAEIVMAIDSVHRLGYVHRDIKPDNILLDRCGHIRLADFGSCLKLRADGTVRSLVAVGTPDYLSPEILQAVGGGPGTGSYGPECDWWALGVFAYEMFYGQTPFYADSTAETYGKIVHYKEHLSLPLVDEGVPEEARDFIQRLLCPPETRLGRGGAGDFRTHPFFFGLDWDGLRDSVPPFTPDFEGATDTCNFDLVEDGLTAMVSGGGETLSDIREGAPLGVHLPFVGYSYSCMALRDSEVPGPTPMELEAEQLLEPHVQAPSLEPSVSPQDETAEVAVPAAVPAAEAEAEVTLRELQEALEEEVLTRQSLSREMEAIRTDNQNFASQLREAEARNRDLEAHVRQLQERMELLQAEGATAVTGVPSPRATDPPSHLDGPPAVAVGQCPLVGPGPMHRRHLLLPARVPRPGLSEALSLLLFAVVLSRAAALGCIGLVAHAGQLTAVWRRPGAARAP

[30] = target: NUAK1 (human) (UniProt O60285)
[31] = target: AKT2 (human) (UniProt P31751)
[32] = target: GSK3B (human) (UniProt P49841)
[33] = system: FLT3 (human), P36888 [R834Q]
[34] = target: CAMKK2 (human) (UniProt Q96RR4)
[35] = target: LATS2 (human) (UniProt Q9NRM7)
[36] = target: MST4 (human) (UniProt Q9P289)
MST4 (human), sequence (Q9P289 whole entry, looked up): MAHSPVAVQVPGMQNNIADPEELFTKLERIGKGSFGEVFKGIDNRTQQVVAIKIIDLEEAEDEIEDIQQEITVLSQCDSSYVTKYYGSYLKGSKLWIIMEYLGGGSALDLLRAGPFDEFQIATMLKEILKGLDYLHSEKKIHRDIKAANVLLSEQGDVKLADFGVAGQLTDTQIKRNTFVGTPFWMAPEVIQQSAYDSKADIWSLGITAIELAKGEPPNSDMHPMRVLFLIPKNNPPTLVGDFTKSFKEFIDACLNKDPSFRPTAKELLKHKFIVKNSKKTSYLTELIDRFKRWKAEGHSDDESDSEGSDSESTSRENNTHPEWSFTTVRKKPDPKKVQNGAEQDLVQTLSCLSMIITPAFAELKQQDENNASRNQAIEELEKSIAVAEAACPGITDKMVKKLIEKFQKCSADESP

[37] = target: JAK1 JH1 catalytic (human) (UniProt P23458)
[38] = target: ACVR1 (human) (UniProt Q04771)
[39] = target: DYRK1A (human) (UniProt Q13627)
[40] = target: PRKCH (human) (UniProt P24723)

FGFR1 (human), sequence (P11362 whole entry, looked up): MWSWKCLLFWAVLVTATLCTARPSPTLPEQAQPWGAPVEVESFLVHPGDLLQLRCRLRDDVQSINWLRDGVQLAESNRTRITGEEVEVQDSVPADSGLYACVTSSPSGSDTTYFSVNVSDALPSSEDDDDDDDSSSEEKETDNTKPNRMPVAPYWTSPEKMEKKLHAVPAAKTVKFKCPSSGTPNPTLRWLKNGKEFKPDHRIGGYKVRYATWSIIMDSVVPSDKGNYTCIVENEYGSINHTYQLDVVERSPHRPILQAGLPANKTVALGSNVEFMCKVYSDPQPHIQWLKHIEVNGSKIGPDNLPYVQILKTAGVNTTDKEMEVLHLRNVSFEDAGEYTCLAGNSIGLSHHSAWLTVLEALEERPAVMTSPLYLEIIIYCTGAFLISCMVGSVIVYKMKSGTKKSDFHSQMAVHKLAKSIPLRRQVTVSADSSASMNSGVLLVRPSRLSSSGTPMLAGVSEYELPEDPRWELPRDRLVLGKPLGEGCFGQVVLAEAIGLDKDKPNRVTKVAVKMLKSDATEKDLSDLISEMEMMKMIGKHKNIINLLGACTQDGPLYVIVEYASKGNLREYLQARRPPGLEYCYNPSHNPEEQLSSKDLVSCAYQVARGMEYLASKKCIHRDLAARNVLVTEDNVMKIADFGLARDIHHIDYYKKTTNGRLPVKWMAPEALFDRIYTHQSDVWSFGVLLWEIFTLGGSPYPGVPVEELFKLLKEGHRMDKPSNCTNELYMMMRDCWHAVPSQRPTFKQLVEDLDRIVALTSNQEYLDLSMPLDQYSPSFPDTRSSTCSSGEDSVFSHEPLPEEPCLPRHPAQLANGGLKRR

Compound `CN(C)C/C=C/C(=O)Nc1ccc(C(=O)Nc2cccc(Nc3nccc(-c4cccnc4)n3)c2)cc1` has a kinase still bound, per cent of control [1] of 100%, a kinase still bound, per cent of control [2] of 89% and a kinase still bound, per cent of control [3] of 36%. It also gave a kinase still bound, per cent of control [4] of 86%, a kinase still bound, per cent of control [5] of 100% and a kinase still bound, per cent of control [6] of 83%. For the same compound, the kinase still bound, per cent of control [7] was 36%, the kinase still bound, per cent of control [8] was 57% and the kinase still bound, per cent of control [9] was 53%. For the same compound, the kinase still bound, per cent of control [10] was 100%, the kinase still bound, per cent of control [11] was 33% and the kinase still bound, per cent of control [12] was 100%. The kinase still bound, per cent of control [13] was 94%, the kinase still bound, per cent of control [14] was 95% and the kinase still bound, per cent of control [15] was 100%. For the same compound, the kinase still bound, per cent of control [16] was 100%, the kinase still bound, per cent of control [17] was 75% and the kinase still bound, per cent of control [18] was 4.2%. It also gave a kinase still bound, per cent of control [19] of 35%, a kinase still bound, per cent of control [20] of 22% and a kinase still bound, per cent of control [21] of 65%. It also gave a kinase still bound, per cent of control [22] of 3.6%, a kinase still bound, per cent of control [23] of 74% and a kinase still bound, per cent of control [24] of 54%. For the same compound, the kinase still bound, per cent of control [25] was 29%, the kinase still bound, per cent of control [26] was 36% and the kinase still bound, per cent of control [27] was 83%. It also gave a kinase still bound, per cent of control [28] of 100%, a kinase still bound, per cent of control [29] of 64% and a kinase still bound, per cent of control [30] of 61%. For the same compound, the kinase still bound, per cent of control [31] was 100%, the kinase still bound, per cent of control [32] was 67% and the kinase still bound, per cent of control [33] was 83%. The kinase still bound, per cent of control [34] was 16%, the kinase still bound, per cent of control [35] was 86% and the kinase still bound, per cent of control [36] was 100%. It also gave a kinase still bound, per cent of control [37] of 100%, a kinase still bound, per cent of control [38] of 53% and a kinase still bound, per cent of control [39] of 28%. The kinase still bound, per cent of control [40] was 100%.
Compound `NC(=O)Nc1cc(-c2cccc(F)c2)sc1C(=O)N[C@@H]1CCCNC1` has a kinase still bound, per cent of control [1] of 51%, a kinase still bound, per cent of control [2] of 1.3% and a kinase still bound, per cent of control [3] of 0.4%. It also gave a kinase still bound, per cent of control [4] of 28%, a kinase still bound, per cent of control [5] of 100% and a kinase still bound, per cent of control [6] of 1.2%. For the same compound, the kinase still bound, per cent of control [7] was 0%, the kinase still bound, per cent of control [8] was 28% and the kinase still bound, per cent of control [9] was 2.2%. It also gave a kinase still bound, per cent of control [10] of 88%, a kinase still bound, per cent of control [11] of 0% and a kinase still bound, per cent of control [12] of 0.5%. It also gave a kinase still bound, per cent of control [13] of 2.2%, a kinase still bound, per cent of control [14] of 48% and a kinase still bound, per cent of control [15] of 40%. The kinase still bound, per cent of control [16] was 0.05%, the kinase still bound, per cent of control [17] was 14% and the kinase still bound, per cent of control [18] was 12%. For the same compound, the kinase still bound, per cent of control [19] was 39%, the kinase still bound, per cent of control [20] was 4.8% and the kinase still bound, per cent of control [21] was 27%. The kinase still bound, per cent of control [22] was 2.9%, the kinase still bound, per cent of control [23] was 27% and the kinase still bound, per cent of control [24] was 0%. The kinase still bound, per cent of control [25] was 0%, the kinase still bound, per cent of control [26] was 0.1% and the kinase still bound, per cent of control [27] was 5%. For the same compound, the kinase still bound, per cent of control [28] was 0.3%, the kinase still bound, per cent of control [29] was 12% and the kinase still bound, per cent of control [30] was 0%. It also gave a kinase still bound, per cent of control [31] of 60%, a kinase still bound, per cent of control [32] of 41% and a kinase still bound, per cent of control [33] of 5.6%. It also gave a kinase still bound, per cent of control [34] of 2.9%, a kinase still bound, per cent of control [35] of 2% and a kinase still bound, per cent of control [36] of 0.15%. For the same compound, the kinase still bound, per cent of control [37] was 17%, the kinase still bound, per cent of control [38] was 4% and the kinase still bound, per cent of control [39] was 0%. The kinase still bound, per cent of control [40] was 1.4%.
